Measured values as given in patent publication US12491176B2, “Methods, compositions, kits and uses thereof targeting and/or treating VRK2 to enhance effectiveness of immune checkpoint inhibitor(s)” (THE TRUSTEES OF COLUMBIA UNIVERSITY IN THE CITY OF NEW YORK, priority 2021, dated 2025).
Entries after “also recorded” stand apart in the source; their conditions may differ.

Legend:
[1] = tested on: MC38 tumor; test: MC38 syngeneic mouse tumor model, tumor growth; type: in vivo
Description: (§1) One million MC38 or 4T1 cells were used for inoculation, implanted subcutaneously in the right hind flank of mice. Tumor growth was monitored using electronic calipers and calculated according to the formula: V=length×width^2×0.52. For T cell phenotypic analysis by flow cytometry, spleens and inguinal lymph nodes were harvested 17 days post-treatment initiation. Splenic and tdLN cells were stained with anti-mouse antibodies for flow cytometry analysis. To deplete T cells, mice received intraperitoneal injection of 200 μg anti-CD4 (BioXcell BE0003) and 200 μg anti-CD8 (BioXcell BE0061) antibodies in PBS, a second dose of the antibodies was administered two days later. […] Cell viability was measured with PrestoBlue (Invitrogen). […] Prexasertib was given S.C. at 10 mg/kg. All drugs were given for 12 days.
(§2) The MC38 syngeneic mouse tumor model was used to determine whether VRK2 inhibition alone or in combination with PD-1 blockade would improve anti-tumor immune response (see, e.g., FIG. 3A).
Utilizing an immunocompetent syngeneic model, C57BL/6 mice were injected with colon adenocarcinoma cell line MC38 and treated with kinase inhibitors as monotherapy or in combination with a mouse immune checkpoint blocking antibody (clone RMP1.14) for PD-1.

[2] = tested on: 4T1 tumor; test: 4T1 mouse breast cancer tumor model in BALB/c mice, tumor growth; type: in vivo
Description: as §1

[3] = tested on: PAK2 S197 phosphorylation; test: Western blot of PAK2 S197 phosphorylation in Jurkat T cells following PD-1 ligation; type: cell-based, human
Protocol: To determine PAK phosphorylation, 5×10^6 Jurkat T cells were washed with cold PBS and resuspended in complete RPMI. The cells were stimulated for 5 minutes with Dynabeads at 37° C. as indicated above (beads/cells ratio of 3:1). The samples were treated with Calyculin A (CST 99025) at 100 nM for 25 minutes at 37° C., washed once with cold PBS and centrifugation at 500×g and lysed with RIPA buffer supplemented with PhosStop (Roche) for 1 hr at 4° C. Following 10 second sonication and centrifugation at 12,000×g for 10 minutes at 4° C., the samples were blotted using Phospho-PAK1 (Ser199/204)/PAK2 (Ser192/197) antibody (Cell Signaling). Blots were imaged and analyzed using Licor Odyssey.
Therefore, it was sought to validate the in silico predictions in Jurkat T cells with and without pharmacological VRK2 inhibition as well as in shRNA VRK2 knockdown Jurkat T cell line.

[4] = tested on: T cells in tdLN and spleen; test: T cell phenotypic analysis by flow cytometry in tdLN and spleen of MC38 tumor mice; type: in vivo, mouse
Description: as §1, §2

[5] = tested on: mouse splenocytes; settings: overnight treatment
[6] = tested on: T cells; test: Toxicity to T cells; type: cell-based
[7] = tested on: PD-1 signaling; test: In vitro ability of PD-1 to inhibit cytokine secretion with IC-261; type: cell-based
Protocol: IL-2, IL-8, and IFN-γ concentrations in the supernatant were measured by enzyme linked immunosorbent assay (ELISA) from BioLegend.
IC-261 (AdooQ®: A15764), a small molecule specific inhibitor of VRK2 was used to evaluate the effect of VRK2 inhibition in tumor growth using mice MC38 syngenetic tumor model. This drug was also used in in vitro experiments where the ability of PD-1 to inhibit cytokine secretion was evaluated.

SMILES | MC38 tumor volume compared to Prexasertib (LY2606368) and PF-477,736 ([1]; AZD-7762 25 mg/kg, PF 10 mg/kg, Prexasertib 10 mg/kg, 12 days) | tumor inhibition ([1]; AZD-7762 in combination treatment with anti-PD-1, MC38 in C57BL/6 mice) | tumor volume compared to vehicle or anti-PD-1 antibody treatment ([1]; AZD-7762 treatment alone, MC38) | anti-tumor activity after CD4+ and CD8+ T cell depletion ([1]; MC38 model, T cells depleted with anti-CD4 and anti-CD8 antibodies) | anti-tumor responses compared to PD-1 blockade alone or AZD-7762 treatment alone ([1]; combination of AZD-7762 with PD-1 blockade, MC38) | inhibited tumor growth ([1]; monotherapy, 25 mg/kg intraperitoneal (I.P.), MC38 in C57BL/6 mice) [%] | reduction in tumor growth ([2]; AZD-7762 alone, 4T1 in BALB/c mice (resistant to PD-1 monotherapy)) [%] | reduction in tumor growth, combination versus AZD-7762 alone ([2]; combination of AZD-7762 and anti-PD-1, 4T1 in BALB/c mice) | PAK2 S197 phosphorylation following PD-1 ligation [3] | proportion of CD8 T cells in tumor draining lymph nodes (tdLN) ([4]; combination of AZD-7762 with PD-1 blockade) | proportion of CD44+PD-1+ T cells in spleen and tdLN ([4]; combination therapy) | proportion of activated CD44+CD69+ CD4+ and CD8+ T cells in the tdLN ([4]; combination therapy) | LAG-3+ CD8+ T cells ([4]; combination therapy, tdLN) | cytotoxicity compared to two other CHK specific inhibitors [5] | inhibition of tumor growth ([1]; monotherapy, 5 mg/kg, MC38 in C57BL/6 mice) | toxicity to T cells [6] | effect on PD-1 signaling and function (ability of PD-1 to inhibit cytokine secretion) [7]
NC(=O)Nc1cc(-c2cccc(F)c2)sc1C(=O)N[C@H]1CCCNC1 [AZD-7762] | marked decrease in MC38 tumor volume | around 90% | significantly decreased tumor volume | fully reversed the anti-tumor activity; also recorded: impaired the efficacy | augmented anti-tumor responses | ~80 | ~30 | similar | fully inhibited | increased proportion of CD8 T cells | elevated proportion | significantly increased proportion | significantly increased | less cytotoxicity | – | – | –
COc1cc(OC)c(C=C2C(O)=Nc3ccccc32)c(OC)c1 [IC-261] | – | – | – | – | – | – | – | – | – | – | – | – | – | – | inhibition of tumor growth, like anti-PD-1 dosed as monotherapy | not toxic to T cells | interfere with PD-1 signaling and function
